Data taken from ChEMBL document CHEMBL3860058, “Sterol-dependent membrane association of the marine sponge-derived bicyclic peptide Theonellamide A as examined by 1H NMR” (Bioorg Med Chem, 2016).
Calls of active or inactive are those of the source. No cut-off for these calls is given here.

Legend:
Aspergillus = assay: Antifungal activity against Aspergillus assessed as growth inhibition using alamar blue staining measured after 14 to 16 hrs by microdilution assay; type: functional
[1] = Cytotoxicity against mouse P388 cells; type: functional, cell-based
[2] = Antifungal activity against Trichophyton assessed as growth inhibition using alamar blue staining measured after 14 to 16 hrs by microdilution assay; type: functional
[3] = Antifungal activity against wild-type Candida albicans ATCC 32354 assessed as growth inhibition using alamar blue staining measured after 14 to 16 hrs by microdilution assay; type: functional
[4] = Binding affinity to cholesterol containing DMPC-d54/DHPC-d22 bicelles assessed as […] measured at ratio of 4:10 Mn2+ to compound by 1H NMR spectroscopy relative to control
Lipid bilayer = assay: Binding affinity to POPC large unilamellar vesicle in pH 7.4 phosphate buffer by SPR analysis
[5] = Binding affinity to cholesterol containing DMPC-d54/DHPC-d22 bicelles assessed as broadening of aromatic/olefinic signals at 6.5 to 7.6 ppm measured at 200 uM by 1H NMR spectroscopy
[6] = Binding affinity to cholesterol containing POPC large unilamellar vescicle in pH 7.4 phosphate buffer by SPR analysis
[7] = Binding affinity to cholesterol containing DMPC-d54/DHPC-d22 bicelles assessed as […] measured at ratio of 1:10 Mn2+ to compound by 1H NMR spectroscopy relative to control
[8] = Induction of membrane damage in POPC/cholesterol GUV model assessed as membrane curvature at 20 uM after 13 to 55 mins by TNM-DCCH staining based confocal microscopic analysis
[9] = Binding affinity to DMPC-d54/DHPC-d22 bicelles assessed as […] measured at ratio of 4:10 Mn2+ to compound by 1H NMR spectroscopy relative to control
[10] = Aqueous diffusion coefficient of compound in 98:2 ratio of D2O/H2O solvent system at 25 degC by 1H NMR DOSY spectroscopy; type: physicochemical; details: buffer
[11] = Diffusion coefficient of the compound D2O at 11 mM and 25 degC by 1H NMR spectroscopy; type: physicochemical; details: 11000 µM

D [10]	D [11]	Structure (SMILES)	IC50 (Aspergillus)	IC50 [1]	IC50 [2]	IC50 [3]	Ratio [4]	Kd (Lipid bilayer)	Activity [5]	Kd [6]	Ratio [7]	Activity [8]	Ratio [9]
		CC(/C=C/c1ccc(Br)cc1)=C\[C@H](O)[C@@H]1CC(=O)N[C@@H](CO)C(=O)N[C@@H]2C[n+]3c[nH]c(c3)C[C@H](NC(=O)C[C@H](O)C[C@@H](C(=O)[O-])NC(=O)CCNC(=O)[C@H](Cc3ccccc3)NC(=O)[C@H]([C@@H](O)C(N)=O)NC(=O)[C@H](CC(N)=O)NC2=O)C(=O)N[C@@H]([C@H](C)O)C(=O)N[C@@H](CO)C(=O)N[C@@H](Cc2ccccc2)C(=O)N1	2000 to 7000 nM	500 to 2800 nM	2000 to 7000 nM	2000 to 7000 nM							
		CC(/C=C/c1ccccc1)=C\[C@H](O)[C@@H]1CC(=O)N[C@@H](CO)C(=O)N[C@@H]2Cn3cc([n+]([C@@H]4O[C@H](CO)[C@H](O)[C@H](O)[C@H]4O)c3)C[C@H](NC(=O)C[C@H](O)C[C@@H](C(=O)[O-])NC(=O)[C@@H](O)CNC(=O)[C@H]([C@@H](C)c3ccc(Br)cc3)NC(=O)[C@H]([C@@H](O)C(N)=O)NC(=O)[C@H](CC(N)=O)NC2=O)C(=O)N[C@@H]([C@H](C)O)C(=O)N[C@@H](CO)C(=O)N[C@@H](Cc2ccccc2)C(=O)N1	2000 to 7000 nM	500 to 2800 nM	2000 to 7000 nM	2000 to 7000 nM	0.54 to 0.61	420000 nM	Active	9200 nM	0.85	Active	0.36 to 0.46
		CC(/C=C/c1ccc(Br)cc1)=C\[C@H](O)[C@@H]1CC(=O)N[C@@H](CO)C(=O)N[C@@H]2C[n+]3c[nH]c(c3)C[C@H](NC(=O)C[C@H](O)C[C@@H](C(=O)[O-])NC(=O)[C@@H](O)CNC(=O)[C@H]([C@@H](C)c3ccc(Br)cc3)NC(=O)[C@H]([C@@H](O)C(N)=O)NC(=O)[C@H](CC(N)=O)NC2=O)C(=O)N[C@@H]([C@H](C)O)C(=O)N[C@@H](CO)C(=O)N[C@@H](Cc2ccccc2)C(=O)N1	2000 to 7000 nM	500 to 2800 nM	2000 to 7000 nM	2000 to 7000 nM							
2.63 ×10⁻¹⁰ m2/s	2.64 ×10⁻¹⁰ m2/s	OC[C@H]1O[C@@H]2O[C@H]3[C@H](O)[C@@H](O)[C@@H](O[C@H]4[C@H](O)[C@@H](O)[C@@H](O[C@H]5[C@H](O)[C@@H](O)[C@@H](O[C@H]6[C@H](O)[C@@H](O)[C@@H](O[C@H]7[C@H](O)[C@@H](O)[C@@H](O[C@H]8[C@H](O)[C@@H](O)[C@@H](O[C@H]1[C@H](O)[C@H]2O)O[C@@H]8CO)O[C@@H]7CO)O[C@@H]6CO)O[C@@H]5CO)O[C@@H]4CO)O[C@@H]3CO [BETADEX]											
		CC(/C=C/c1ccc(Br)cc1)=C\[C@H](O)[C@@H]1CC(=O)N[C@@H](CO)C(=O)N[C@@H]2Cn3cc([n+]([C@H]4OC[C@H](O)[C@H](O)[C@H]4O)c3)C[C@H](NC(=O)C[C@H](O)C[C@@H](C(=O)[O-])NC(=O)CCNC(=O)[C@H](Cc3ccc(Br)cc3)NC(=O)[C@H]([C@@H](O)C(N)=O)NC(=O)[C@H](CC(N)=O)NC2=O)C(=O)N[C@@H]([C@H](C)O)C(=O)N[C@@H](CO)C(=O)N[C@@H](Cc2ccccc2)C(=O)N1	2000 to 7000 nM	500 to 2800 nM	2000 to 7000 nM	2000 to 7000 nM							
		CC(/C=C/c1ccc(Br)cc1)=C\[C@H](O)[C@@H]1CC(=O)N[C@@H](CO)C(=O)N[C@@H]2C[n+]3c[nH]c(c3)C[C@H](NC(=O)C[C@H](O)C[C@@H](C(=O)[O-])NC(=O)CCNC(=O)[C@H](Cc3ccc(Br)cc3)NC(=O)[C@H]([C@@H](O)C(N)=O)NC(=O)[C@H](CC(N)=O)NC2=O)C(=O)N[C@@H]([C@H](C)O)C(=O)N[C@@H](CO)C(=O)N[C@@H](Cc2ccccc2)C(=O)N1	2000 to 7000 nM	500 to 2800 nM	2000 to 7000 nM	2000 to 7000 nM							
		CC(/C=C/c1ccc(Br)cc1)=C\[C@H](O)[C@@H]1CC(=O)N[C@@H](CO)C(=O)N[C@@H]2Cn3cc([n+]([C@@H]4O[C@H](CO)[C@H](O)[C@H](O)[C@H]4O)c3)C[C@H](NC(=O)C[C@H](O)C[C@@H](C(=O)[O-])NC(=O)CCNC(=O)[C@H](Cc3ccc(Br)cc3)NC(=O)[C@H]([C@@H](O)C(N)=O)NC(=O)[C@H](CC(N)=O)NC2=O)C(=O)N[C@@H]([C@H](C)O)C(=O)N[C@@H](CO)C(=O)N[C@@H](Cc2ccccc2)C(=O)N1	2000 to 7000 nM	500 to 2800 nM	2000 to 7000 nM	2000 to 7000 nM							
